In patent US9315527B2, “Synthesis and applications of peripherally asymmetric aryl POSS compounds” (The United States of America as Represented by the …, priority 2011, dated 2016):
Values after ≈ are worked out from the molar mass of the structure shown.

Legend:
[1] = Solubility of aromatic POSS compounds in organic solvents by visual measurements; type: physicochemical; details: visual measurement; for Solubility in CHCl3: chloroform; for Solubility in PE: phenyl ether; for Solubility in Tol: toluene; for Solubility in DMF: dimethyl formamide; for Solubility in THF: tetrahydrofuran
Protocol: The influence of the prescribed peripheral asymmetry of these compounds on solubility was determined by visual measurements in five organic solvents, including chloroform (CHCl3), tetrahydrofuran (THF), phenyl ether (PE), toluene (Tol), and dimethyl formamide (DMF), summarized in Table 1.
The substitution of a single polycyclic aromatic ring on the POSS cage improves solubility substantially in most cases. However, it is difficult to predict the influence of each aromatic group on the observed solubility, as well as in which solvent the solubility will be affected. Modification with a 1-naphthyl group to produce (1-naphthyl)-phenyl7Si8O12 (3) results in solubility in CHCl3 and THF exceeding 100 mg/mL and the observance of more finite solubility in the other investigated solvents. Modification with a 2-naphthyl group to produce (2-naphthyl)phenyl7Si8O12 (4) increases solubility in PE and DMF, but reduces solubility in THF and CHCl3, when compared to (1-naphthyl)-phenyl7Si8O12 (3).

[2] = Phase behavior of POSS in polyetherimide (Ultem 1000, PEI): chloroform solutions and drop cast annealed films; type: physicochemical; details: for Appearance of chloroform solution containing PEI and POSS: 5 weight percent PEI in chloroform, POSS 5 weight percent with respect to PEI
Protocol: To examine the phase behavior of this new class of peripherally-asymmetric POSS nanoparticles with a representative aromatic polymer, attempts were made to solubilize both phenyl8Si8O12 and (1-naphthyl)phenyl7Si8O12 in polyetherimide (Ultem 1000, PEI). Chloroform solutions were prepared at a solute concentration of 5 weight percent PEI and POSS concentration of 5 weight percent with respect to PEI. Subsequent films from these solutions were drop cast onto glass substrates, dried under vacuum, and annealed at 220° C., above the glass transition temperature of PEI, to promote equilibrium phase formation.
Qualitatively, the dried and annealed films were visually observed to be of contrasting appearance.

[3] = chloroform, benchmark; cited from earlier work

Molecule | Solubility in CHCl3 [1] [mg/mL] | Solubility in PE [1] | Solubility in Tol [1] | Appearance of chloroform solution containing PEI and POSS [2] | Visual appearance of dried and annealed PEI film ([2]; drop cast film, annealed at 220° C.) | Length scale of aggregated particles in PEI film ([2]; drop cast film, annealed at 220° C., microscopy, some regions) | Solubility in DMF [1] [mg/mL] | Phase separation length scale in PEI film ([2]; drop cast film, annealed at 220° C., microscopy) | Solubility in THF [1] [mg/mL] | Solubility in CHCl3 (previously documented) [3]
c1ccc([Si]23O[Si]4(c5ccccc5)O[Si]5(c6ccccc6)O[Si](c6ccccc6)(O2)O[Si]2(c6ccccc6)O[Si](c6ccccc6)(O3)O[Si](c3ccccc3)(O4)O[Si](c3ccccc3)(O5)O2)cc1 [Compound 2, phenyl8Si8O12] | 1 (≈ 968 µM) | ^a (Insoluble.) | ^a (Insoluble.) | cloudy | significantly more opaque | greater than 1 mm | – | – | – | about 1 mg/mL
(1-naphthyl)-phenyl7Si8O12 [Compound 3] | – | 15 mg/mL | ^a (Insoluble.) | transparent | – | – | 24 | less than 5 microns | – | –

Continued, in another order:

Solubility in CHCl3 [1] [mg/mL] | Solubility in PE [1] | Solubility in Tol [1] | Appearance of chloroform solution containing PEI and POSS [2] | Visual appearance of dried and annealed PEI film ([2]; drop cast film, annealed at 220° C.) | Length scale of aggregated particles in PEI film ([2]; drop cast film, annealed at 220° C., microscopy, some regions) | Solubility in DMF [1] [mg/mL] | Phase separation length scale in PEI film ([2]; drop cast film, annealed at 220° C., microscopy) | Solubility in THF [1] [mg/mL] | Molecule | Solubility in CHCl3 (previously documented) [3]
7 | 4 mg/mL | 5 mg/mL | – | – | – | 5 | – | 10 | (1-pyrenyl)phenyl7Si8O12 [Compound 6] | –
55 | 53 mg/mL | ^a (Insoluble.) | – | – | – | 35 | – | 28 | (2-naphthyl)phenyl7Si8O12 [Compound 4] | –
52 | 25 mg/mL | 27 mg/mL | – | – | – | 57 | – | 117 | (9-phenanthrenyl)-phenyl7Si8O12 [Compound 5] | –
